Here are results for 2 compounds from PubChem BioAssay (NCI).

Test systems include IGROV1 ovarian; SK-MEL-5 melanoma; SNB-19 CNS; KM12 colon; RPMI-8226 leukemia; HCC-2998 colon; UO-31 renal; SNB-75 CNS; SR leukemia; SF-295 CNS; HOP-62 NSCLC; NCI-H522 lung; U251 CNS; MALME-3M melanoma; SF-539 CNS; NCI-H460 lung; CCRF-CEM leukemia; RXF 393 renal; LOX IMVI melanoma; DMS 114 small cell lung.
Common to all, as to experiment: inhibition of tumour cell growth, NCI panel, 48 h

SMILES strings stand for the structures.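 Method: 48-hour compound exposure of cells in 96-well plates, five concentrations, linear interpolation of endpoints. TGI denotes the concentration required for complete inhibition of growth.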

In the case of `COc1cc(CNc2nc3cc(C(F)(F)F)ccc3nc2C)cc(OC)c1OC`, the TGI with IGROV1 ovarian is 33.3 µM; in the assay on SK-MEL-5 melanoma, 46.9 µM; in the assay with SNB-19 CNS it was over 100 µM; with KM12 colon, 40 µM; with RPMI-8226 leukemia, 65.7 µM; with HCC-2998 colon, 37.8 µM. Also, the TGI in the assay on UO-31 renal is 63.9 µM; with SNB-75 CNS it was 57.1 µM; in the assay on SR leukemia, 76.1 µM; with SF-295 CNS, 46.5 µM; with HOP-62 NSCLC it was 71.3 µM; in the assay on NCI-H522 lung it was 48.5 µM. For the same compound, the TGI with U251 CNS is 36.7 µM; in the assay with MALME-3M melanoma, 41.8 µM; with SF-539 CNS, 62.2 µM; with NCI-H460 lung, 36 µM; in the assay with CCRF-CEM leukemia, 62.6 µM; in the assay with RXF 393 renal, 44.7 µM. In the assay with LOX IMVI melanoma, this compound gave a TGI of 27.8 µM.
For `c1ccc(Nc2nnc(-c3nsc4ccccc34)o2)cc1`, the TGI in the assay with IGROV1 ovarian, with SK-MEL-5 melanoma, in the assay on SNB-19 CNS, in the assay on KM12 colon, with DMS 114 small cell lung and in the assay on RPMI-8226 leukemia was over 100 µM throughout. Also, the TGI in the assay with HCC-2998 colon was over 100 µM; in the assay with UO-31 renal, over 100 µM; in the assay on SNB-75 CNS, 78.4 µM; in the assay on SR leukemia it was over 100 µM; with HOP-62 NSCLC it was over 100 µM; in the assay with U251 CNS it was over 100 µM. The TGI with SF-539 CNS, in the assay on NCI-H460 lung, in the assay on CCRF-CEM leukemia, in the assay with RXF 393 renal and with LOX IMVI melanoma was over 100 µM in each case.
